Measured values published in patent publication EP1247803A2, “Indolinone compounds suitable for modulation of protein kinases” (Sugen, Inc., priority 1996, dated 1998).

How the values were obtained:
[1] = tested on: MET; assay: MET biochemical kinase assay; parameters: species or system human; concentration or dose not given beside the values
Summary of the method: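 Lysate-derived MET, or chimeric receptors, is immobilised on plates through an antibody to the human MET cytoplasmic region. Compounds are added along with kinase buffer supplying ATP and divalent metal ions, and receptor autophosphorylation is quantified by anti-phosphotyrosine ELISA.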

[2] = target: T1, EGFR (Homo sapiens, UniProt P00533); assay: EGFR ELISA assay (in vitro kinase activity, EGFR captured from A431 cell lysate); format: biochemical; parameters: concentration or dose not given beside the values
T1 construct: Add 7 ug A431 cell lysate per well (EGFR source); endogenous in cells; host or cells: A431
Summary of the method: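 EGFR from A431 lysate was captured on plates coated with anti-EGFR antibody. Compounds were added 30 min before a 5 min phosphorylation with 3 µM ATP/5 mM MnCl2, which was stopped with 20 mM EDTA. Phosphotyrosine was detected with rabbit anti-phosphotyrosine, then a peroxidase-conjugated secondary and ABTS/H2O2, read at 410 nm.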

T1 sequence (P00533 25-1210): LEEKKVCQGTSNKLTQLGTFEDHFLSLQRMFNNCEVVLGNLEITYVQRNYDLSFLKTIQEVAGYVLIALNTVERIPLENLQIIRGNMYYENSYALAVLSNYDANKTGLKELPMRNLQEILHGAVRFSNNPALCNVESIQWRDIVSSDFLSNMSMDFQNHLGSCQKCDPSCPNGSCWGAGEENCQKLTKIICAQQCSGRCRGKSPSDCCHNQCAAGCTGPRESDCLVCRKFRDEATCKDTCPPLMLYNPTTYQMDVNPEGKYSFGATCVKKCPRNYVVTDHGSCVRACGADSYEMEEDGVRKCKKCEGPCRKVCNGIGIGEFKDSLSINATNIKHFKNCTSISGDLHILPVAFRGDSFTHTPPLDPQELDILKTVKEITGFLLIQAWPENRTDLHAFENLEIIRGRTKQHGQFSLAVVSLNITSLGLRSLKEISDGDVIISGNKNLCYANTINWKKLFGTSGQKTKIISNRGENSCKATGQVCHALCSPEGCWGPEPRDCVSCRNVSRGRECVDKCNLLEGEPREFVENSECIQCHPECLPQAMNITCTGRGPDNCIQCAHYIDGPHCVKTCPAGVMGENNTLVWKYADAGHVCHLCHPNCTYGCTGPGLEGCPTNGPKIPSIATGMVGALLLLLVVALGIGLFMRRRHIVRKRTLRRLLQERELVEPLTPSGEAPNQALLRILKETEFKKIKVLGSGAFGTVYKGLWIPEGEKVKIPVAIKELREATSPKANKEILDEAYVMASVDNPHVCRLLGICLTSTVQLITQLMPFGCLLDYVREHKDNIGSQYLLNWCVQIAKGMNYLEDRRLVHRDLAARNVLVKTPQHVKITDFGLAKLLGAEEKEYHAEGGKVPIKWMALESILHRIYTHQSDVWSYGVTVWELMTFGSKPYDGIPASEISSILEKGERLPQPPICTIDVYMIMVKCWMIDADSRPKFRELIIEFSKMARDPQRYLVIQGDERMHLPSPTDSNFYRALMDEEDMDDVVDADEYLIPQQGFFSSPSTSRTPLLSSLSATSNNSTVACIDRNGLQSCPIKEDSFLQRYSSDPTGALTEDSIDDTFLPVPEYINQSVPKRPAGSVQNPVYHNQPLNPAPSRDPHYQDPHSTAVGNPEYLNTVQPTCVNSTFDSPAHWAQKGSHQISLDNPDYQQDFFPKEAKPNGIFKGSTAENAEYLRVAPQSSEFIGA

| Compound | Met Kinase % Inhibition [1] [%] | Biochem EGFR %Inhibition [2] [%] |
| --- | --- | --- |
| CCOc1cccc(C=C2C(=O)Nc3c(Br)cc(Br)cc32)c1O [10734/A02] | 51.1 | 0.0 |
| COc1c([N+](=O)[O-])cc(C=C2C(=O)Nc3ccc(S(=O)(=O)N4CCOCC4)cc32)cc1C(C)(C)C [10733/F03] | 24.2 | -3.6 |
| CCN(CC)c1ccc(C=C2C(=O)Nc3ccc(I)cc32)c(O)c1 [10734/B05] | 67.8 | 17.8 |
| Cc1c(Br)ccc2c1C(=Cc1ccc([N+](=O)[O-])cc1)C(=O)N2 [10734/C06] | 48.3 | 18.4 |
| O=C1Nc2ccc(S(=O)(=O)Nc3ccc(C(F)(F)F)cc3)cc2C1=Cc1ccc2ccccc2c1O [10718/E04] | 87.7 | 16.4 |
| COc1c([N+](=O)[O-])cc(C=C2C(=O)Nc3ccc(S(=O)(=O)Nc4ccc(C(F)(F)F)cc4)cc32)cc1C(C)(C)C [10733/E03] | 26.8 | 10.7 |
| COc1c(C(C)(C)C)cc(C=C2C(=O)Nc3ccc(S(=O)(=O)N4CCOCC4)cc32)cc1C(C)(C)C [10733/F04] | 65.1 | 76.3 |
| CCOc1cccc(C=C2C(=O)Nc3ccc(S(=O)(=O)Nc4ccc(C(F)(F)F)cc4)cc32)c1O [10734/E02] | 66.9 | -10.8 |
| O=C1Nc2ccc(I)cc2C1=Cc1cccc(F)c1O [10734/B08] | 56.1 | 19.3 |
| CCOc1cccc(C=C2C(=O)Nc3ccc(S(=O)(=O)NC)cc32)c1O [10734/D02] | 46.0 | 5.2 |
| O=C1Nc2ccc(CCCl)cc2C1=Cc1cc([N+](=O)[O-])ccc1O [10733/G10] | 41.9 | 18.2 |
| CCOc1cccc(C=C2C(=O)Nc3ccc(Br)c(C)c32)c1O [10734/C02] | 78.6 | -6.7 |
| O=C1Nc2c(Br)cc(Br)cc2C1=Cc1cc(Br)cc(Br)c1O [10734/A07] | 89.3 | 15.2 |
| COc1c(C)cc(C=C2C(=O)Nc3ccc(S(=O)(=O)Nc4ccc(C(F)(F)F)cc4)cc32)cc1C [10733/E06] | 10.4 | 37.3 |
| CNS(=O)(=O)c1ccc2c(c1)C(=Cc1ccc([N+](=O)[O-])cc1)C(=O)N2 [10734/D06] | 30.6 | 1.3 |
| O=C1Nc2ccc(I)cc2C1=Cc1ccc([N+](=O)[O-])cc1 [10734/B06] | 91.2 | 54.0 |

| Compound | Met Kinase % Inhibition [1] [%] | Biochem EGFR %Inhibition [2] [%] |
| --- | --- | --- |
| CCN(CC)c1ccc(C=C2C(=O)Nc3ccc(Br)c(C)c32)c(O)c1 [10734/C05] | 52.7 | 9.3 |
| COC(=O)c1[nH]c(C)c(C=C2C(=O)Nc3ccc(S(=O)(=O)Nc4ccc(C(F)(F)F)cc4)cc32)c1C(=O)OC [10718/E07] | 80.5 | 13.9 |
| COc1cc(Br)cc(C=C2C(=O)Nc3ccc(S(=O)(=O)N4CCOCC4)cc32)c1O [10733/F08] | 66.6 | 17.2 |
| O=C1Nc2ccc(I)cc2C1=Cc1cc(Cl)ccc1O [10734/B04] | 88.4 | 38.7 |
| O=C1Nc2ccc(S(=O)(=O)Nc3ccc(C(F)(F)F)cc3)cc2C1=Cc1cc(Br)ccc1O [10733/E09] | 62.6 | 72.4 |
| CCOC(=O)CCc1c(C(=O)OCC)[nH]c(C=C2C(=O)Nc3ccc(S(=O)(=O)Nc4ccc(C(F)(F)F)cc4)cc32)c1CC(=O)OCC [10718/E05] | 32.2 | -3.1 |
| O=C1Nc2c(Br)cc(Br)cc2C1=Cc1cc(Cl)cc(Cl)c1O [10734/A03] | 87.8 | 18.5 |
| COc1c(C)cc(C=C2C(=O)Nc3ccc(CCCl)cc32)cc1C [10733/G06] | 0.8 | 5.2 |
| O=C1Nc2ccc(I)cc2C1=Cc1ccc(Br)s1 [10734/B11] | 83.6 | 50.9 |
| O=C1Nc2ccc(I)cc2C1=Cc1cc(Br)cc(Br)c1O [10734/B07] | 93.2 | 65.5 |
| CNS(=O)(=O)c1ccc2c(c1)C(=Cc1ccc(C(C)(C)C)cc1)C(=O)N2 [10734/D10] | 20.6 | -4.4 |
| Cc1c(Br)ccc2c1C(=Cc1cc(Cl)cc(Cl)c1O)C(=O)N2 [10734/C03] | 88.2 | 48.6 |
| O=C1Nc2c(Br)cc(Br)cc2C1=Cc1cc(Cl)ccc1O [10734/A04] | 68.0 | 11.4 |
| Cc1c(O)ccc(C=C2C(=O)Nc3ccc(S(=O)(=O)Nc4ccc(C(F)(F)F)cc4)cc32)c1O [10718/E09] | 80.8 | 17.0 |
| O=C1Nc2c(Br)cc(Br)cc2C1=Cc1ccc([N+](=O)[O-])cc1 [10734/A06] | 46.9 | -6.4 |
